Consider 4 compounds from patent publication US9073861B2, “Diphenylmethyl piperazine derivative and pharmaceutical composition using same” (AETAS PHARMA CO., LTD., priority 2011, dated 2015).

The structures appear in SMILES notation.

One assay has as its system normal rats. Kind of assay: Hemodynamics before and after intravenous administration in anesthetized normal rats (left ventricular pressure catheter). Format: in vivo, Wistar male rats. The note with it: 0.1 mg/kg/min for 10 min i.v.; for maximum +dP/dt after administration as compared to that by the comparative compound [A]: FIG. 7; for maximum −dP/dt after administration as compared to that by the comparative compound [A]: FIG. 8. As to the method:
Wistar male rats were bred for a week and then anesthetized by inhalation of 3% isoflurane. A pressure sensor-tipped catheter (2F Millar) was inserted into the left ventricle from the right common carotid artery, and a polyethylene tube (SP10) for injection of the compounds of the present invention or physiological saline was inserted from the right femoral vein. After stabilizing hemodynamics for 10 minutes, the compound [2] of the present invention was administered from the polyethylene tube at 0.1 mg/kg/min for 10 min, and the cardiac rate, left ventricular pressure, maximum +dP/dt, and maximum −dP/dt were measured for 20 heart beats every minute. In the control group, only physiological saline, which is a solvent, was administered. It is noted that the injection rate of each solution was 16.6 μl per min.
The cardiac rate, maximum left ventricular pressure, maximum +dP/dt and maximum −dP/dt before administration of a drug were considered as 100%, and the values after administration were represented by values (% representation) relative to the values before administration. Using n=3 rats, experiments were carried out. Data are shown as mean and standard deviation. Consequently, cardiac rate before and after administration (the left side in FIG. 1) and changes in the maximum left ventricular pressure (the right side in FIG. 1) are shown in FIG. 1, and changes in the maximum +dP/dt (the left side in FIG. 2) and changes in the maximum −dP/dt (the right side in FIG. 2) are shown in FIG. 2.
(§1) Wistar male rats were bred for a week and then anesthetized by inhalation of 3% isoflurane. Experiments were carried out in the same manner as in Test Example 1, and the compound [3] of the present invention was administered as a test compound at 0.1 mg/kg/min for 10 min, and the cardiac rate, left ventricular pressure, maximum +dP/dt, and maximum −dP/dt were measured for 20 heart beats every minute. The maximum +dP/dt or the maximum −dP/dt before administration was considered as 100%, and the value after administration was represented by a value (% representation) relative to the value before administration. Data are shown as mean and standard deviation. Using n=3 rats, experiments were carried out.
as §1, with “[4]” for “[3]”
Wistar male rats were bred for a week and then anesthetized by inhalation of 3% isoflurane. Experiments were carried out in the same manner as in Test Example 1, and the comparison comparative compound [A] was administered as a test compound at 0.1 mg/kg/min for 10 min, and the cardiac rate, left ventricular pressure, maximum +dP/dt, and maximum −dP/dt were measured for 20 heart beats every minute. The maximum +dP/dt or the maximum −dP/dt before administration was considered as 100%, and the value after administration was represented by a value (% representation) relative to the value before administration. Data are shown as mean and standard deviation. Using n=3 rats, experiments were carried out.
From the results of the tests carried out in Test Examples 1, 3, 4 and 5, the maximum +dP/dt (FIG. 7) and the maximum −dP/dt (FIG. 8) after administration of the compound [2], and compound [3], and compound [4] of the present invention as well as the comparative compound [A] were compared and examined.

In assay [1] the test system is rats with obsolete myocardial infarction. Briefly: Effect on myocardial contraction and relaxation in rats with obsolete myocardial infarction (coronary ligation, one month after operation). Format: in vivo, Wistar male rats. The note with it: 0.1 mg/kg/min for 10 min i.v., n=3. The source says:
Wistar male rats were anesthetized by inhalation of 3% isoflurane. The chest was opened at the left third intercostal space and the pericardial membrane was incised. The left anterior descending coronary artery was completely ligated with silk string (6.0; Ethicon) in the infarction group, and then the chest was immediately closed. Following this procedure, the inserted endotracheal tube was removed, and rats were awakened and then returned to a breeding room.
One month after operation, rats were anesthetized and endotracheally intubated, a pressure sensor-tipped catheter (2F Millar) was inserted into the left ventricle from the right common carotid artery, and a polyethylene tube (SP10) for injection of physiological saline or the compounds of the present invention was inserted from the right femoral vein in the same manner as in Test Example 1. After stabilizing hemodynamics for 10 minutes, the compound [2] of the present invention was administered from the polyethylene tube at 0.1 mg/kg/min for 10 min, and the cardiac rate, left ventricular pressure, maximum +dP/dt, and maximum −dP/dt were measured for 20 heart beats every minute. In the control group, only physiological saline, which is a solvent, was administered. It is noted that the injection rate of each solution was 16.6 μl per min. Using n=3 rats, experiments were carried out.
The maximum +dP/dt or the maximum −dP/dt before administration was considered as 100%, and the value after administration was represented by a value (% representation) relative to the value before administration. Data are shown as mean and standard deviation.

Take `Cc1ccc(C2(O)CCN(CC(O)CN3CCN(C(c4ccccc4)c4ccccc4)CC3)CC2)cc1` (centres unmarked) [compound [4], 1-[4-(diphenylmethyl)piperazinyl]-3-[4-hydroxy-4-(4-methylphenyl)-piperidinyl]-2-propanol]: in the assay on normal rats, the “maximum +dP/dt after administration as compared to that by the comparative compound [A]” value is recorded as “significantly raised” and the “maximum −dP/dt after administration as compared to that by the comparative compound [A]” value is recorded as “significantly raised”. For the same compound, in the assay with normal rats (pre-administration = 100%, n=3), the “maximum +dP/dt (index of contractile function) after vs before administration” value is “significantly increased” and the “maximum −dP/dt (index of relaxing function) after vs before administration” value was “significantly increased”.
Take `OC(CN1CCN(C(c2ccccc2)c2ccccc2)CC1)CN1CCC(O)(c2ccc(Cl)cc2)CC1` (centres unmarked) [comparative compound [A], 1-[4-(diphenylmethyl)piperazinyl]-3-[4-(4-chlorophenyl)-4-hydroxy-piperidinyl]-2-propanol, reference compound]: in the assay with normal rats (pre-administration = 100%, n=3), the “maximum +dP/dt (index of contractile function) after vs before administration” value was “tended to slightly increase after administration of the comparative compound [A], but significant changes were not observed” and the “maximum −dP/dt (index of relaxing function) after vs before administration” value is “tended to slightly increase after administration of the comparative compound [A], but significant changes were not observed”.
Regarding `OC1(c2ccc(Cl)cc2)CCN(CCCN2CCN(C(c3ccccc3)c3ccccc3)CC2)CC1` [compound [3], 1-[4-(diphenylmethyl)piperazinyl]-3-[4-(4-chlorophenyl)-4-hydroxy-piperidinyl]propane], in the assay on normal rats, the “maximum +dP/dt after administration as compared to that by the comparative compound [A]” value is reported as “significantly raised” and the “maximum −dP/dt after administration as compared to that by the comparative compound [A]” value was “significantly raised”. In the assay on normal rats (pre-administration = 100%, n=3), the “maximum +dP/dt (index of contractile function) after vs before administration” value is “significantly increased” and the “maximum −dP/dt (index of relaxing function) after vs before administration” value is recorded as “significantly increased”.
For `OC(CN1CCN(C(c2ccccc2)c2ccccc2)CC1)CN1CCC(O)(c2ccccc2)CC1` (centres unmarked) [compound [2], 1-[4-(diphenylmethyl)piperazinyl]-3-(4-hydroxy-4-phenyl-piperidinyl)-2-propanol], in the assay with normal rats, the “maximum +dP/dt after administration as compared to that by the comparative compound [A]” value was “significantly raised” and the “maximum −dP/dt after administration as compared to that by the comparative compound [A]” value was “significantly raised”. Also, in the assay on normal rats (pre-administration = 100%, n=3), the “cardiac rate after administration relative to before administration” value is “not increased”, the “left ventricular pressure after administration relative to before administration” value is given as “significantly raised”, the “maximum +dP/dt (index of contractile function) after vs before administration” value is on record as “significant increases” and the “maximum −dP/dt (index of relaxing function) after vs before administration” value is given as “significant increases”. In addition, in assay [1], the “cardiac rate after vs before administration” value was “significant changes in the cardiac rate were not observed” and the “left ventricular pressure after vs before administration” value was “significantly increased”. Moreover, in assay [1] (pre-administration = 100%), the “maximum +dP/dt after vs before administration” value is on record as “significantly increased” and the “maximum −dP/dt after vs before administration” value is on record as “significantly increased”.
